Peptide text beside a SMILES is read from it.
Assays:
Ad-TSHR-immunized mice = assay: ventricular myocardial volumes from digitized cross-sectional LV areas; assay type: in vivo, BALB/c mice; conditions: 1 mg/kg IV 4-weekly, end of experiment
Description: In FIG. 7 the effect of the peptide therapy on heart rates at various times during the experiment (A), and on heart weights (B) and cardiac ventricular volumes (C) at the end of the experiment were evaluated in all animals. The measurements were carried out in Ad-TSHR-immunized mice treated by either 4-weekly injections with vehicle (0.9% NaCl, “Graves' no therapy”, n=25 mice), or administrations of 1 mg/kg body weight of peptide of the invention 836 (12 mice), or of peptide 829 (13 mice), or TSHR-Fc (18 mice). In addition, age-matched immunologically naïve unimmunized mice (“healthy”, 19 animals) were investigated. Data are represented as mean±SEM. […]
After euthanasia, dissection of the thyroid glands was performed under a stereomicroscope, as described before (22). […] Thyroid volumes (mm^3) were calculated from the sum of the areas of each section over the whole cutting region. Myocardial volumes (mm^3) were calculated in a similar way as described for thyroid glands from the sum of the areas of each section over whole cutting region (5 to 6 slides, depending on respective size of the hearts). […]

[1] = test system: immunologically naïve mice; conditions: mouse, in vivo, iv, 1 mg/kg
Description: BALB/c mice were adapted for at least one week to start experiments at the age of 12 weeks. Animals were kept as described before. […] Peptides (either 1 mg/kg body weight or NaCl vehicle control) were given by IV injection into a tail vein of these naïve mice (n=5 per group), and then continued at 4-weekly intervals for 6 months, as described before for the therapeutic study in immunized mice. Serum samples were taken at identical intervals.
1) “3rd generation assay”: Antibodies against TSHR were detected by a commercially available 3rd generation enzyme immunoassay provided by RSR Limited, Avenue Park, Pentwyn, Cardiff, U.K., in which the of the human Graves patient-derived M22 monoclonal antibody and serum antibodies compete for binding sites on immobilized TSHR. […] The assay was performed using 30 μl 1:10 (PBS) diluted serum in at least double determination according to the manufacturer's instructions.

[2] = test system: TSHR-overexpressing CHO cells JP2626; assay: ex vivo TSHR-dependent cAMP stimulation in test cells; assay type: cell-based, human; conditions: 100 μg/ml test substance, anti-TSHR-antibody positive samples
Description: In FIG. 8 the effects of peptides on anti-TSHR antibody titers (A) and on cAMP stimulation in TSHR-expressing test cells (B) were studied ex vivo (anti-TSHR-antibody positive serum samples). Each measurement was carried out in 4 samples. Results are shown as % of untreated controls with standard errors of the means (SEM). Significance was tested by analysis of variance (ANOVA) between groups, followed by LSD post-hoc testing. **p<0.001, compared to controls
To investigate effects on TSHR-dependent cAMP stimulation ex vivo, TSHR-overexpressing CHO cells JP2626 were prepared as described above. Then, 100 μg/ml peptide 829, peptide of the invention 836 or fusion protein TSHR-Fc were added to the JP2626 cells. After incubation for 2.5 hours at 37° C. the cAMP release in the medium was measured in duplicates by a competitive immunoassay ELISA (#EMSCAMPL, Thermo Fisher Scientific, Waltham, Mass., USA).

CC[C@H](C)[C@@H]1NC(=O)[C@H](C(C)C)NC(=O)[C@H]([C@@H](C)O)NC(=O)[C@H](CC(C)C)NC(=O)[C@H](Cc2ccc(O)cc2)NC(=O)[C@H](CCCCN)NC(=O)[C@H](CC(N)=O)NC(=O)[C@H](CCCCN)NC(=O)[C@H](CC(N)=O)NC(=O)[C@H](CC(C)C)NC(=O)[C@H](Cc2ccc(O)cc2)NC(=O)[C@H](C(C)C)NC(=O)[C@H](C)NC(=O)[C@H](CC(=O)O)NC(=O)[C@H](CC(C)C)NC(=O)[C@H](CCCCN)NC(=O)[C@H]([C@@H](C)O)NC(=O)CNC(=O)[C@H](CC(N)=O)NC(=O)[C@H](Cc2ccccc2)NC(=O)[C@H](C)NC(=O)[C@H](Cc2ccc(O)cc2)NC(=O)CNC(=O)[C@H](CC(=O)O)NC1=O [peptide 836] (cyclo(GYAFNGTKLDAVYLNKNKYLTVID))
ventricular myocardial volumes (Ad-TSHR-immunized mice): significantly reduced ventricular myocardial volumes
anti-TSHR antibody titers in naive mice [1]: below background
generation of anti-TSHR antibodies [1]: not observed in any of the 6 animals

TSHR-Fc: fusion protein: first 289 amino acids of human TSH receptor (A-subunit), GGR linker and Fc portion of human IgG2
ventricular myocardial volumes (Ad-TSHR-immunized mice): significantly reduced ventricular myocardial volumes
cAMP-stimulating potency in TSHR-expressing test cells ex vivo [2]: reduction of titer and activity

— patent US11459375B2, “Cyclic peptides for the treatment of Graves' disease” (advanceCOR GmbH, priority 2017, dated 2022)
